Columns and labels:
Assay in all cases: KINOMEscan competition binding
BMPR2 (human) = BMPR2 (human) (UniProt Q13873); conditions: compound 1.0 µM
TGFBR2 (human) = TGFBR2 (human) (UniProt P37173); conditions: compound 1.0 µM
TYRO3 (human) = TYRO3 (human) (UniProt Q06418); conditions: compound 1.0 µM
ERBB4 (human) = ERBB4 (human) (UniProt Q15303); conditions: compound 1.0 µM
[1] = biological target: JAK1 JH1 catalytic (human) (UniProt P23458); conditions: compound 1.0 µM
[2] = biological target: TYK2 JH2 pseudokinase (human) (UniProt P29597); conditions: compound 1.0 µM
PLK2 (human) = PLK2 (human) (UniProt Q9NYY3); conditions: compound 1.0 µM
SRMS (human) = SRMS (human) (UniProt Q9H3Y6); conditions: compound 1.0 µM
EPHB6 (human) = EPHB6 (human) (UniProt O15197); conditions: compound 1.0 µM
LTK (human) = LTK (human) (UniProt P29376); conditions: compound 1.0 µM
Sequence of LTK (human) (P29376 whole entry, looked up): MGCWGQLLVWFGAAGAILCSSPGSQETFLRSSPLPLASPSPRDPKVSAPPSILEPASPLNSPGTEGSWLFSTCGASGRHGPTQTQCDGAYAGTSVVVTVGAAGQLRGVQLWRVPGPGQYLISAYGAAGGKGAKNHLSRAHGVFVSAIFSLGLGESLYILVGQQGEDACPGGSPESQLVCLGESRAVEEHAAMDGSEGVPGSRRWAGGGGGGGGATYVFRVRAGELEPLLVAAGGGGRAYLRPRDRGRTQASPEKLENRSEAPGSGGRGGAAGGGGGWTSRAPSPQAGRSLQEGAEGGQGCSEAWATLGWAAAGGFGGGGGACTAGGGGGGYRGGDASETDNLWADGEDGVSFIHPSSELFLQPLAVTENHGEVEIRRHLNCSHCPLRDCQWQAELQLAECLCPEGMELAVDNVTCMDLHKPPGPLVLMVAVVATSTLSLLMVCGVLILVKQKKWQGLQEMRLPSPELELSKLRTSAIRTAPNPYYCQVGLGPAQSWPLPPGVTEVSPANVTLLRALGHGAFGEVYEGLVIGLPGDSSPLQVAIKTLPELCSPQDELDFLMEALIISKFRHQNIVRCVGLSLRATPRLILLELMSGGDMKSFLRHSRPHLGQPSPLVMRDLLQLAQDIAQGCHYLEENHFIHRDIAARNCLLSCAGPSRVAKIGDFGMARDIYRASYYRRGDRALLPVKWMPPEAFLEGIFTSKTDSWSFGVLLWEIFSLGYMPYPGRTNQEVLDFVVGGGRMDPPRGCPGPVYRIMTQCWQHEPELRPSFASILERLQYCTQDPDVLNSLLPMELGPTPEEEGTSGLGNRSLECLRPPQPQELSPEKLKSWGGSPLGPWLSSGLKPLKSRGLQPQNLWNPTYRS

TGFBR1 (human) = TGFBR1 (human) (UniProt P36897); conditions: compound 1.0 µM
ACVR2A (human) = ACVR2A (human) (UniProt P27037); conditions: compound 1.0 µM
[3] = test system: LRRK2 (human), Q5S007 [G2019S]; conditions: compound 1.0 µM
Sequence of LRRK2 (human), Q5S007 [G2019S] (Q5S007 whole entry G2019S, looked up): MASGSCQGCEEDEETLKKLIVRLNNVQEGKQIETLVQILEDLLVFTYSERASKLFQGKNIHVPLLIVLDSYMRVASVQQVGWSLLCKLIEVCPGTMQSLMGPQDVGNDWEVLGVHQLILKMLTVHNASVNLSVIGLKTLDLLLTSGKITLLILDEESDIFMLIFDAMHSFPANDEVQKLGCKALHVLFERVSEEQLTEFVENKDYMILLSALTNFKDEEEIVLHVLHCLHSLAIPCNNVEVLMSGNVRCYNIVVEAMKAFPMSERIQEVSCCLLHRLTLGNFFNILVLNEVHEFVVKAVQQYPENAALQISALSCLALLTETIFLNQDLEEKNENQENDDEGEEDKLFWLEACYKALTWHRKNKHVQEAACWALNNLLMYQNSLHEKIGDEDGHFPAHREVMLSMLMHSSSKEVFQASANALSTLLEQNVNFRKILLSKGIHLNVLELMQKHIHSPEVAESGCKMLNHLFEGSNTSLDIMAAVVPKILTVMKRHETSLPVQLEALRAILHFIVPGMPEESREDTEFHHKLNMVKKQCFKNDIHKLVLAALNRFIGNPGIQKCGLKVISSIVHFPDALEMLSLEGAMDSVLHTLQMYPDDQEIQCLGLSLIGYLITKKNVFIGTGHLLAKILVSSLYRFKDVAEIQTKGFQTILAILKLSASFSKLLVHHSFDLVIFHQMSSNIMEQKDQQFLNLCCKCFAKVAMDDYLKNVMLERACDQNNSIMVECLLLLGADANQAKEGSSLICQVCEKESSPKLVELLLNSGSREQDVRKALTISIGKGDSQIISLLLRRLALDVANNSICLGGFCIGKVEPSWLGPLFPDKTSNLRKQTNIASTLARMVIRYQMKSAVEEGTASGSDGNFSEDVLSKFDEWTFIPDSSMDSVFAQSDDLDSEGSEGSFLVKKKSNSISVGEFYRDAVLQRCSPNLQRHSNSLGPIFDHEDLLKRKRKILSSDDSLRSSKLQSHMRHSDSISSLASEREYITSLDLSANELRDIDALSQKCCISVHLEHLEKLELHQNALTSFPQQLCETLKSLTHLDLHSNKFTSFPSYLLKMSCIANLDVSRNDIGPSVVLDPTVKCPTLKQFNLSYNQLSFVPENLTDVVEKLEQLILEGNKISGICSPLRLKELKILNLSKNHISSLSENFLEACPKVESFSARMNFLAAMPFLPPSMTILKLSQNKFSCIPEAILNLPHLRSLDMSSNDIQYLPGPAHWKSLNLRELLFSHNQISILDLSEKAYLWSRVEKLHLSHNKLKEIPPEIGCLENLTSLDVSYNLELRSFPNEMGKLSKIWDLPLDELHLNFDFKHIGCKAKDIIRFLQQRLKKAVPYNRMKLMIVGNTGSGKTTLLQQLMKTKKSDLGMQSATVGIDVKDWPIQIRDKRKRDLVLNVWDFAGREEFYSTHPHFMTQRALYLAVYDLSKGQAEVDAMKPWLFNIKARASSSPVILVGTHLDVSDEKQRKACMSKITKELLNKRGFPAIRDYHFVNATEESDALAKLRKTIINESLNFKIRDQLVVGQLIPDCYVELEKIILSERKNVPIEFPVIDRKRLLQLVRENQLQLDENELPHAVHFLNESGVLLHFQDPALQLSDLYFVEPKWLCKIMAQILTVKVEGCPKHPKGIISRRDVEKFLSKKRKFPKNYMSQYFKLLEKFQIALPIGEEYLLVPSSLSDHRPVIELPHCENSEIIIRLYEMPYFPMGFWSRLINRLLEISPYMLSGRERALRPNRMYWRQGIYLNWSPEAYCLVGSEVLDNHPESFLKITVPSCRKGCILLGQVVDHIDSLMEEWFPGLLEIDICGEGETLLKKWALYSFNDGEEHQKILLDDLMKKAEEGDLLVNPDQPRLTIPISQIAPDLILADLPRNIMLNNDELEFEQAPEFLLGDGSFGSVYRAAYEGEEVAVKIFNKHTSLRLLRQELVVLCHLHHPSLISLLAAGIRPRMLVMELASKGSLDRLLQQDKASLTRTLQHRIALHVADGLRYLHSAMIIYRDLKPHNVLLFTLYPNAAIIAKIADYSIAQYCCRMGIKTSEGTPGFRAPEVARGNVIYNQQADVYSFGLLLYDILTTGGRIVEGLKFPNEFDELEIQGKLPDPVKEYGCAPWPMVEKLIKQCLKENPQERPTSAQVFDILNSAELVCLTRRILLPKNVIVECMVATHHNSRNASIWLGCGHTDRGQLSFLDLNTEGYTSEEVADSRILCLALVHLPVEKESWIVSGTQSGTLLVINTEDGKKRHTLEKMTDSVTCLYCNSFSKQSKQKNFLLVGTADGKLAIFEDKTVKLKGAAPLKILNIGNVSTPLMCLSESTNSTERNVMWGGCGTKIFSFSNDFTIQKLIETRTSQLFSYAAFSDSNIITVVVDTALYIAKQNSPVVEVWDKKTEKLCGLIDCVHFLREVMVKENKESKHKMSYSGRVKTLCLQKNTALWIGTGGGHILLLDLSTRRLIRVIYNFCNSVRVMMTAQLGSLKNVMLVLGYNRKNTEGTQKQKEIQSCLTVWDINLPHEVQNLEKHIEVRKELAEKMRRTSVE

EIF2AK1 (human) = EIF2AK1 (human) (UniProt Q9BQI3); conditions: compound 1.0 µM
EPHA8 (human) = EPHA8 (human) (UniProt P29322); conditions: compound 1.0 µM
ITK (human) = ITK (human) (UniProt Q08881); conditions: compound 1.0 µM
CDK7 (human) = CDK7 (human) (UniProt P50613); conditions: compound 1.0 µM
LYN (human) = LYN (human) (UniProt P07948); conditions: compound 1.0 µM
Sequence of LYN (human) (P07948 whole entry, looked up): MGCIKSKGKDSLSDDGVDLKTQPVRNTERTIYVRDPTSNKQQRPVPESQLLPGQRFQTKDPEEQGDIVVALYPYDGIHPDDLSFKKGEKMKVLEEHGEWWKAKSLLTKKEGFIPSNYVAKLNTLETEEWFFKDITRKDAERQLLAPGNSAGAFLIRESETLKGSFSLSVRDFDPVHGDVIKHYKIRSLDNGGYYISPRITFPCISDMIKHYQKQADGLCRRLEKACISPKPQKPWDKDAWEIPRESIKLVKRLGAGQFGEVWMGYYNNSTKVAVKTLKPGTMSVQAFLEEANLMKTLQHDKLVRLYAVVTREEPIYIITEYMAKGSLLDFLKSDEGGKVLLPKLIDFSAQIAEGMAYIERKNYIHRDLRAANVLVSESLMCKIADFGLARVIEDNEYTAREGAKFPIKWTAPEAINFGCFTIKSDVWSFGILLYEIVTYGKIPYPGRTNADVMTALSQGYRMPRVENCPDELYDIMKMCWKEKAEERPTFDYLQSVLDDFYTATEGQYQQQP

CDKL1 (human) = CDKL1 (human) (UniProt Q00532); conditions: compound 1.0 µM
[4] = test system: RET (human), P07949 [V804L]; conditions: compound 1.0 µM
SIK2 (human) = SIK2 (human) (UniProt Q9H0K1); conditions: compound 1.0 µM
ABL2 (human) = ABL2 (human) (UniProt P42684); conditions: compound 1.0 µM
TEC (human) = TEC (human) (UniProt P42680); conditions: compound 1.0 µM
GSK3B (human) = GSK3B (human) (UniProt P49841); conditions: compound 1.0 µM
RPS6KA4 KD1 (human) = RPS6KA4 KD1 (human) (UniProt O75676); conditions: compound 1.0 µM
RIPK2 (human) = RIPK2 (human) (UniProt O43353); conditions: compound 1.0 µM
TSSK1B (human) = TSSK1B (human) (UniProt Q9BXA7); conditions: compound 1.0 µM
[5] = test system: EGFR (human), P00533 [747-751 del / S ins]; conditions: compound 1.0 µM
NUAK1 (human) = NUAK1 (human) (UniProt O60285); conditions: compound 1.0 µM
EPHB1 (human) = EPHB1 (human) (UniProt P54762); conditions: compound 1.0 µM
NEK5 (human) = NEK5 (human) (UniProt Q6P3R8); conditions: compound 1.0 µM
HIPK3 (human) = HIPK3 (human) (UniProt Q9H422); conditions: compound 1.0 µM
KDR (human) = KDR (human) (UniProt P35968); conditions: compound 1.0 µM
FLT4 (human) = FLT4 (human) (UniProt P35916); conditions: compound 1.0 µM
MYLK3 (human) = MYLK3 (human) (UniProt Q32MK0); conditions: compound 1.0 µM
STK17A (human) = STK17A (human) (UniProt Q9UEE5); conditions: for kinase still bound, per cent of control: compound 1.0 µM
Sequence of STK17A (human) (Q9UEE5 whole entry, looked up): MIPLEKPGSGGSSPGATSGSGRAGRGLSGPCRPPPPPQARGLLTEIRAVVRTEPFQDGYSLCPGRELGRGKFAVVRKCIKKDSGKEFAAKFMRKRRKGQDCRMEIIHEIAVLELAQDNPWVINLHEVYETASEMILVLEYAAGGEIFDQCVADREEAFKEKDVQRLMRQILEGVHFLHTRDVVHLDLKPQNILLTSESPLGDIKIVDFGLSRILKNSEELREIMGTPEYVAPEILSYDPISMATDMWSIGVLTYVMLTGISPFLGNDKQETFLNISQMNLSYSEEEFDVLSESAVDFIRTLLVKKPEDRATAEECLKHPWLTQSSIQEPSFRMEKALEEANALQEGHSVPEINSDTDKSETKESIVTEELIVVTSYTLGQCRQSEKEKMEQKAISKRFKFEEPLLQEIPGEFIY

RAF1 (human) = RAF1 (human) (UniProt P04049); conditions: compound 1.0 µM
DYRK1B (human) = DYRK1B (human) (UniProt Q9Y463); conditions: compound 1.0 µM
PRKACB (human) = PRKACB (human) (UniProt P22694); conditions: compound 1.0 µM
WEE2 (human) = WEE2 (human) (UniProt P0C1S8); conditions: compound 1.0 µM
Sequence of WEE2 (human) (P0C1S8 whole entry, looked up): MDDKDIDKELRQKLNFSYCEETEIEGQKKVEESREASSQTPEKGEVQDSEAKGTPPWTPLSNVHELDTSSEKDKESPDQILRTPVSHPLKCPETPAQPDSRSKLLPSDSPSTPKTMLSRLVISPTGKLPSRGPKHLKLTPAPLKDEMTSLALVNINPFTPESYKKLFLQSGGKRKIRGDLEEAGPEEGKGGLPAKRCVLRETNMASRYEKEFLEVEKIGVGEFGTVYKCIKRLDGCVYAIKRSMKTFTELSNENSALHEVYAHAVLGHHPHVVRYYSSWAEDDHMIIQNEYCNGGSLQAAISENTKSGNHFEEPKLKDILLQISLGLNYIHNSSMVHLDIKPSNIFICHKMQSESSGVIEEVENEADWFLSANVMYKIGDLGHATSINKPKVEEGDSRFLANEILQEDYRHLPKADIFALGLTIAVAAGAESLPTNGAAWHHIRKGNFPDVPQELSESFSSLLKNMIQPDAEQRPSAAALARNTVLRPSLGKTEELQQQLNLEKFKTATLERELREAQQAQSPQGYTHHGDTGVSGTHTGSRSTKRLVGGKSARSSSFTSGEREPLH

ROCK1 (human) = ROCK1 (human) (UniProt Q13464); conditions: compound 1.0 µM
MTOR (human) = MTOR (human) (UniProt P42345); conditions: compound 1.0 µM
PRKD3 (human) = PRKD3 (human) (UniProt O94806); conditions: compound 1.0 µM

Cc1cc(NC(=O)c2cccc(NC(=O)/C=C/CN(C)C)c2)ccc1Nc1nccc(-c2cccnc2)n1
kinase still bound, per cent of control (BMPR2 (human)): 77%
kinase still bound, per cent of control (TGFBR2 (human)): 64%
kinase still bound, per cent of control (TYRO3 (human)): 85%
kinase still bound, per cent of control (ERBB4 (human)): 96%
kinase still bound, per cent of control [1]: 98%
kinase still bound, per cent of control [2]: 80%
kinase still bound, per cent of control (PLK2 (human)): 79%
kinase still bound, per cent of control (SRMS (human)): 94%
kinase still bound, per cent of control (EPHB6 (human)): 71%
kinase still bound, per cent of control (LTK (human)): 100%
kinase still bound, per cent of control (TGFBR1 (human)): 89%
kinase still bound, per cent of control (ACVR2A (human)): 100%
kinase still bound, per cent of control [3]: 67%
kinase still bound, per cent of control (EIF2AK1 (human)): 100%
kinase still bound, per cent of control (EPHA8 (human)): 100%
kinase still bound, per cent of control (ITK (human)): 100%
kinase still bound, per cent of control (CDK7 (human)): 39%
kinase still bound, per cent of control (LYN (human)): 87%
kinase still bound, per cent of control (CDKL1 (human)): 88%
kinase still bound, per cent of control [4]: 100%
kinase still bound, per cent of control (SIK2 (human)): 88%
kinase still bound, per cent of control (ABL2 (human)): 97%
kinase still bound, per cent of control (TEC (human)): 100%
kinase still bound, per cent of control (GSK3B (human)): 100%
kinase still bound, per cent of control (RPS6KA4 KD1 (human)): 79%
kinase still bound, per cent of control (RIPK2 (human)): 99%
kinase still bound, per cent of control (TSSK1B (human)): 100%
kinase still bound, per cent of control [5]: 95%
kinase still bound, per cent of control (NUAK1 (human)): 100%
kinase still bound, per cent of control (EPHB1 (human)): 100%
kinase still bound, per cent of control (NEK5 (human)): 92%
kinase still bound, per cent of control (HIPK3 (human)): 100%
kinase still bound, per cent of control (KDR (human)): 96%
kinase still bound, per cent of control (FLT4 (human)): 100%
kinase still bound, per cent of control (MYLK3 (human)): 100%
kinase still bound, per cent of control (STK17A (human)): 24%
kinase still bound, per cent of control (RAF1 (human)): 93%
kinase still bound, per cent of control (DYRK1B (human)): 100%
kinase still bound, per cent of control (PRKACB (human)): 76%
kinase still bound, per cent of control (WEE2 (human)): 100%
kinase still bound, per cent of control (ROCK1 (human)): 63%
kinase still bound, per cent of control (MTOR (human)): 100%
kinase still bound, per cent of control (PRKD3 (human)): 80%

CN(C)C/C=C/C(=O)Nc1cccc(C(=O)Nc2ccc(Nc3nccc(-c4cccnc4)n3)cc2)c1
kinase still bound, per cent of control (BMPR2 (human)): 64%
kinase still bound, per cent of control (TGFBR2 (human)): 76%
kinase still bound, per cent of control (TYRO3 (human)): 87%
kinase still bound, per cent of control (ERBB4 (human)): 100%
kinase still bound, per cent of control [1]: 100%
kinase still bound, per cent of control [2]: 5.8%
kinase still bound, per cent of control (PLK2 (human)): 74%
kinase still bound, per cent of control (SRMS (human)): 100%
kinase still bound, per cent of control (EPHB6 (human)): 18%
kinase still bound, per cent of control (LTK (human)): 100%
kinase still bound, per cent of control (TGFBR1 (human)): 86%
kinase still bound, per cent of control (ACVR2A (human)): 43%
kinase still bound, per cent of control [3]: 51%
kinase still bound, per cent of control (EIF2AK1 (human)): 100%
kinase still bound, per cent of control (EPHA8 (human)): 90%
kinase still bound, per cent of control (ITK (human)): 85%
kinase still bound, per cent of control (CDK7 (human)): 20%
kinase still bound, per cent of control (LYN (human)): 86%
kinase still bound, per cent of control (CDKL1 (human)): 54%
kinase still bound, per cent of control [4]: 100%
kinase still bound, per cent of control (SIK2 (human)): 51%
kinase still bound, per cent of control (ABL2 (human)): 79%
kinase still bound, per cent of control (TEC (human)): 100%
kinase still bound, per cent of control (GSK3B (human)): 78%
kinase still bound, per cent of control (RPS6KA4 KD1 (human)): 82%
kinase still bound, per cent of control (RIPK2 (human)): 55%
kinase still bound, per cent of control (TSSK1B (human)): 100%
kinase still bound, per cent of control [5]: 74%
kinase still bound, per cent of control (NUAK1 (human)): 37%
kinase still bound, per cent of control (EPHB1 (human)): 92%
kinase still bound, per cent of control (NEK5 (human)): 7.8%
kinase still bound, per cent of control (HIPK3 (human)): 5.7%
kinase still bound, per cent of control (KDR (human)): 100%
kinase still bound, per cent of control (FLT4 (human)): 95%
kinase still bound, per cent of control (MYLK3 (human)): 85%
Kd (STK17A (human)): 100 nM
kinase still bound, per cent of control (STK17A (human)): 1.3%
kinase still bound, per cent of control (RAF1 (human)): 100%
kinase still bound, per cent of control (DYRK1B (human)): 52%
kinase still bound, per cent of control (PRKACB (human)): 100%
kinase still bound, per cent of control (WEE2 (human)): 100%
kinase still bound, per cent of control (ROCK1 (human)): 22%
kinase still bound, per cent of control (MTOR (human)): 100%
kinase still bound, per cent of control (PRKD3 (human)): 100%
